Assay results from PMC2737470 (Circulation research, 2009).

How the values were obtained:
[1] = system: N2a cell pairs expressing Cx43; experiment: Patch clamp, octanol-induced uncoupling of Cx43 channels; type: cell-based
[2] = molecular target: carboxyl terminal domain of Cx43 (Cx43CT), recombinant; experiment: SPR
recombinant Cx43CT = experiment: NMR 15N-HSQC of Cx43CT titrated with peptide; type: binding; details: Cx43CT titrated with peptide to 1:500 and 1:900 molar ratio
[3] = system: N2a cells expressing Cx40; experiment: Patch clamp, octanol-induced uncoupling of Cx40 channels; type: cell-based; details: N2a cells expressing Cx40, peptide in pipette
[4] = system: carboxyl terminal domain of Cx43 (Cx43CT); experiment: Surface plasmon resonance, peptide binding to immobilised Cx43CT; details: molecular weight-normalized responses, same sensor chip
recombinant Cx40CT = experiment: Surface plasmon resonance with recombinant Cx40CT; type: binding; details: Online Figure IV

Cyclo-RRPPYQ (head to tail) [CyRP-62]
cells remaining coupled after ten minutes of octanol superfusion ([1]; peptide 100 μM in patch pipette): 100%

RRNYRRNY
cell pairs in which the peptide failed to prevent uncoupling ([1]; octanol-induced uncoupling, peptide in pipette): approximately 40% | cell pairs remaining coupled at the end of octanol exposure (number of pairs) ([1]; peptide in patch pipette (100 μM), 10 minutes of octanol): four of the six

CyRP-71 (cyclo-RRPPYRQ as printed in Table 1) (peptide)
SPR response amplitude normalized by molecular weight [2]: 33.9 a.u.

Cyclo-RRPPYRQ (head to tail) [CyRP-71]
interaction with Cx43CT by 15N-HSQC resonance shifts (in words) (recombinant Cx43CT): confirm the binding of Cx43CT to CyRP-71 | effect on time course of octanol-induced uncoupling in Cx40 (in words) [3]: did not modify the time course | SPR response relative to CyRP-62 (times higher) [4]: 9 times | SPR response with Cx40CT (in words) (recombinant Cx40CT): only a minor SPR deflection

RRPPYQ (backbone-cyclized (cyclo-, Q6 joined to R1)) [CyRP-62 (cyclo-RRPPYQ)]
SPR response amplitude normalized by molecular weight (125 μM) [2]: 3.71 a.u.
